Consider two compounds from patent US20060003965A1, “N-acetyl-d-glucosamine (nag) supplemented food products and beverages” (priority 2002, published 2006).

Data set [1] is described as follows: Stability in simulated gastric fluid (SGF). The class given is in vitro ADME. As to conditions: 1 g in SGF with pepsin, pH about 1.2, 37° C., sampled at 0, 5, 15 and 60 minutes. As to the method:
To test the availability of NAG in the stomach, a simulated stomach environment was constructed, and a known concentration of NAG was added to simulated gastric fluid (SGF) and maintained at conditions simulating the stomach. If NAG is degraded or derivatized in the stomach, the NAG concentration will decrease. If the concentration of NAG remains the same, it is likely that the NAG is available to the body.
SGF was prepared based on a 1995 United States Pharmacopoeia (USP) monograph. An artificial stomach environment was simulated according to generally accepted practice (see Consumers Union website, 101 Truman Ave., Yonkers, N.Y. 10703-1057). To prepare simulated gastric fluid, 2.0 g of NaCl and 3.2 g of pepsin were dissolved in 7.0 mL of hydrochloric acid (concentrated) and sufficient water to make a 1000 mL solution.
NAG samples were prepared as follows. […]
Before introduction of samples into the SGF, a sample of the SGF was analyzed as a blank, to determine the baseline. Upon addition of the NAG to the SGF, a sample was immediately analyzed to determine the concentration of NAG at time zero. After introduction of NAG into the SGF, samples were pulled and analyzed at 5 minutes, 15 minutes, and 60 minutes to provide a profile of NAG concentration in the simulated stomach, and analyzed for the concentration of NAG.

A short description of data set [2]: NAG recovery following heating, acid extraction method, HPLC. It is filed as physicochemical. As to conditions: all foods and beverages of Table 14. As to the method:
Food samples were homogenized prior to analysis. Where possible, samples were frozen or dried and ground. Baked goods were crumbled and mixed to produce a homogeneous material. Suitable blanks (samples with no added NAG) of each food type were analyzed to assess interferences. Mass changes between unheated ingredient mixtures and baked final products were tracked to permit accurate recovery calculations.
A food or beverage sample as described in the preceding examples containing 5 to 20 mg of N-acetylglucosamine (NAG) was dispersed in 25 g of 0.1 N HCl in a 50-mL polypropylene centrifuge tube and capped tightly. The sample was mixed for 30 seconds using a vortex mixer, then placed in a water bath at 37° C. The sample was removed from the water bath at 15-minute intervals and mixed for 30 seconds on a vortex mixer and then returned to the water bath. This cycle was repeated until the sample had been in the water bath for one hour. After heating, the sample was mixed for 30 seconds on a vortex mixer, then centrifuged for 10 minutes to separate the liquid and solid phases. Fats, oils or lipids in the sample formed a third layer at the top of the tube. […]
NAG recovery was determined using high performance liquid chromatography (HPLC) using a combination of refractive index and UV (195 nm) detection. […]

Data set [3] can be described thus: pH of supplemented tea before and after heating. It is filed as physicochemical. As to conditions: tea with 5.7 g per quart; for Initial pH: before heating. As to the method:
Tea made from Lipton® instant tea mix was used as the basis for incorporation of samples. To prepare the tea, the following recipe was used: 2.69 g instant tea, 5.7 g GLCN or NAG (where applicable) then add water to one quart. Tea was prepared for sensory testing as follows:
Batch 2. Tea+glucosamine (pH 5-6) [GLCN from fungal biomass, see batch 2 Example 1]
Batch 3. Tea+NAG (pH 5-6) (N-Acetyl-D-glucosamine, Catalog # A-102-2, Ferro Pfanstiehl, Waukegan, Ill.)
Batch 4. Tea+glucosamine (pH 5-6) heated to 71° C. for 20 minutes
Batch 5. Tea+glucosamine heated (pH 5-6) to 90° C. for 20 seconds, flash cooled in ice water bath
Batch 6. Tea+glucosamine (pH 5-6) boiled on stove for 5 minutes, flash cooled in ice water bath
Batch 7. Tea+NAG (pH 5-6) heated to 71° C. for 20 minutes
Batch 8. Tea+NAG (pH 5-6) heated to 90° C. for 20 seconds, flash cooled in ice water bath
Batch 9. Tea+NAG (pH 5-6) boiled on stove for 5 minutes, flash cooled in ice water bath

The mark [4] stands for this setting: heated to 71° C. for 20 minutes.
Where [5] appears, read: heated to 90° C. for 20 seconds.

Regarding `CC(=O)N[C@H]1C(O)O[C@H](CO)[C@@H](O)[C@@H]1O` (stereo partly drawn) [NAG, N-Acetyl-D-glucosamine], the “Loss of NAG in simulated gastric fluid” value in data set [1] is given as “no significant loss of NAG”. For the same compound, the “amount of NAG recovered following heating, range over Table 14 samples” value in data set [2] is 77%-100%. Besides, in data set [3], the “Initial pH” value worked out at 5.46. Moreover, the pH after heating in data set [3] (boiled 5 minutes) is on record as 5.22; in data set [3] (setting [4]) it was 5.40; in data set [3] (setting [5]), 5.31.

`Cl.N[C@H]1C(O)O[C@H](CO)[C@@H](O)[C@@H]1O` (stereo partly shown) [Fungal GLCN, glucosamine hydrochloride, reference compound]: the “Initial pH” value in data set [3] is recorded as 5.09. Also, the figures for the pH after heating in data set [3] (boiled 5 minutes), in data set [3] (setting [4]) and in data set [3] (setting [5]) were 4.87, 5.13 and 5.00, respectively.
